Patent publication US20260022142A1, “MACROCYCLIC IMMUNOMODULATORS” (Bristol-Myers Squibb Company, priority 2022, published 2026)
Bridge positions count the residues as written; N and C are the ends. Square brackets hold non-standard residues; d marks the D form. Peptide text beside a SMILES is read from it. * marks the point of attachment. Bip = N[C@@H](Cc1ccc(-c2ccccc2)cc1)C(=O)O; 4Pal = N[C@@H](Cc1ccncc1)C(=O)O; Carboxymethyl = O=C(O)C*; Orn = NCCC[C@H](N)C(=O)O; Pra = C#CC[C@H](N)C(=O)O; Aun = NCCCCCCCCCCC(=O)O; Dab = NCC[C@H](N)C(=O)O; Dap = NC[C@H](N)C(=O)O; AEEA = NCCOCCOCC(=O)O

Target: T1, PD-1/PD-L1 interaction (PE-labeled human PD-L1-Ig binding to Jurkat cell line over-expressing human PD-1) (Homo sapiens, UniProt Q15116)
T1 construct: expressed in transfected cells; host or cells: Jurkat
T1 sequence (Q15116 25-288): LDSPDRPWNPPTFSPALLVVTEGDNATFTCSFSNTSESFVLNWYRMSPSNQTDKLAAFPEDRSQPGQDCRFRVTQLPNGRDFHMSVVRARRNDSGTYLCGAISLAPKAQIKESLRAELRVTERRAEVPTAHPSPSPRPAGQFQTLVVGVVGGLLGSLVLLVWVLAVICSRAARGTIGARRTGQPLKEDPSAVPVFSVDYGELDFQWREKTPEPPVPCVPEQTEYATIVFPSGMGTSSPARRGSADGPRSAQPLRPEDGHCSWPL
Test: Jurkat-PD-1 Cell Binding High-Content Screening Assay (CBA)
Format: cell-based
Settings: Jurkat cell line over-expressing human PD-1; PE-labeled PD-L1-Ig 20 nM final; read-out: Jurkat hPD1-PDL1 IC50
How it was run: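 First, compound is added to PD-1-expressing Jurkat cells in serum-containing DMEM and left 2 h at 37° C. Next, PE-conjugated PD-L1-Ig is introduced at 20 nM final concentration for 1 hour. Finally, cells are fixed in 4% paraformaldehyde with Hoechst 33342, washed and imaged.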

IC50 [µM] | SMILES
0.0198 | C#CC[C@H](NC(=O)COCCOCCNC(=O)[C@H](CCN)NC(=O)[C@@H]1CSCC(=O)N[C@@H](Cc2ccncc2)C(=O)N[C@@H](Cc2ccc(OCC(=O)O)cc2)C(=O)N[C@@H](CC(=O)O)C(=O)N[C@@H](Cc2c[nH]c3ccccc23)C(=O)N[C@@H](C(C)C)C(=O)N[C@@H](Cc2ccc(-c3ccccc3)cc2)C(=O)N[C@@H]([C@@H](C)CC)C(=O)N[C@@H](CCCN)C(=O)N[C@H](CC(C)C)C(=O)N[C@@H](CCN)C(=O)N[C@@H](CC(C)C)C(=O)N[C@@H](C(C)C)C(=O)N[C@@H]([C@@H](C)O)C(=O)N1)C(=O)NCCCCCCCCCCC(=O)O [Compound 1206] ({CH2CO}-[4Pal]Y(Carboxymethyl)DWV[Bip]I[Orn][dL][Dab]LVTC[Dab][AEEA][Pra][Aun]-OH; thioether N-14)
0.0285 | C#CC[C@H](NC(=O)COCCOCCNC(=O)[C@H](CCCN)NC(=O)[C@@H]1CSCC(=O)N[C@@H](Cc2ccncc2)C(=O)N[C@@H](Cc2ccc(OCC(=O)O)cc2)C(=O)N[C@@H](CC(=O)O)C(=O)N[C@@H](Cc2c[nH]c3ccccc23)C(=O)N[C@@H](C(C)C)C(=O)N[C@@H](Cc2ccc(-c3ccccc3)cc2)C(=O)N[C@@H]([C@@H](C)CC)C(=O)N[C@@H](CCCN)C(=O)N[C@H](CC(C)C)C(=O)N[C@@H](CCN)C(=O)N[C@@H](CC(C)C)C(=O)N[C@@H](C(C)C)C(=O)N[C@@H]([C@@H](C)O)C(=O)N1)C(=O)NCCCCCCCCCCC(=O)O [Compound 1207] ({CH2CO}-[4Pal]Y(Carboxymethyl)DWV[Bip]I[Orn][dL][Dab]LVTC[Orn][AEEA][Pra][Aun]-OH; thioether N-14)
0.0269 | C#CC[C@H](NC(=O)COCCOCCNC(=O)[C@H](CCCCN)NC(=O)[C@@H]1CSCC(=O)N[C@@H](Cc2ccncc2)C(=O)N[C@@H](Cc2ccc(OCC(=O)O)cc2)C(=O)N[C@@H](CC(=O)O)C(=O)N[C@@H](Cc2c[nH]c3ccccc23)C(=O)N[C@@H](C(C)C)C(=O)N[C@@H](Cc2ccc(-c3ccccc3)cc2)C(=O)N[C@@H]([C@@H](C)CC)C(=O)N[C@@H](CCCN)C(=O)N[C@H](CC(C)C)C(=O)N[C@@H](CCN)C(=O)N[C@@H](CC(C)C)C(=O)N[C@@H](C(C)C)C(=O)N[C@@H]([C@@H](C)O)C(=O)N1)C(=O)NCCCCCCCCCCC(=O)O [Compound 1208] ({CH2CO}-[4Pal]Y(Carboxymethyl)DWV[Bip]I[Orn][dL][Dab]LVTCK[AEEA][Pra][Aun]-OH; thioether N-14)
0.0352 | C#CC[C@H](NC(=O)COCCOCCNC(=O)[C@H](CCCNC(=N)N)NC(=O)[C@@H]1CSCC(=O)N[C@@H](Cc2ccncc2)C(=O)N[C@@H](Cc2ccc(OCC(=O)O)cc2)C(=O)N[C@@H](CC(=O)O)C(=O)N[C@@H](Cc2c[nH]c3ccccc23)C(=O)N[C@@H](C(C)C)C(=O)N[C@@H](Cc2ccc(-c3ccccc3)cc2)C(=O)N[C@@H]([C@@H](C)CC)C(=O)N[C@@H](CCCN)C(=O)N[C@H](CC(C)C)C(=O)N[C@@H](CCN)C(=O)N[C@@H](CC(C)C)C(=O)N[C@@H](C(C)C)C(=O)N[C@@H]([C@@H](C)O)C(=O)N1)C(=O)NCCCCCCCCCCC(=O)O [Compound 1209] ({CH2CO}-[4Pal]Y(Carboxymethyl)DWV[Bip]I[Orn][dL][Dab]LVTCR[AEEA][Pra][Aun]-OH; thioether N-14)
0.0222 | C#CC[C@H](NC(=O)COCCOCCNC(=O)[C@H](Cc1cnc[nH]1)NC(=O)[C@@H]1CSCC(=O)N[C@@H](Cc2ccncc2)C(=O)N[C@@H](Cc2ccc(OCC(=O)O)cc2)C(=O)N[C@@H](CC(=O)O)C(=O)N[C@@H](Cc2c[nH]c3ccccc23)C(=O)N[C@@H](C(C)C)C(=O)N[C@@H](Cc2ccc(-c3ccccc3)cc2)C(=O)N[C@@H]([C@@H](C)CC)C(=O)N[C@@H](CCCN)C(=O)N[C@H](CC(C)C)C(=O)N[C@@H](CCN)C(=O)N[C@@H](CC(C)C)C(=O)N[C@@H](C(C)C)C(=O)N[C@@H]([C@@H](C)O)C(=O)N1)C(=O)NCCCCCCCCCCC(=O)O [Compound 1210] ({CH2CO}-[4Pal]Y(Carboxymethyl)DWV[Bip]I[Orn][dL][Dab]LVTCH[AEEA][Pra][Aun]-OH; thioether N-14)

More lines, now with the values behind:

SMILES | IC50 [µM]
C#CC[C@H](NC(=O)COCCOCCNC(=O)[C@H](CCCN)NC(=O)[C@@H]1CSCC(=O)N[C@@H](Cc2ccncc2)C(=O)N[C@@H](Cc2ccc(OCC(=O)O)cc2)C(=O)N[C@@H](CC(=O)O)C(=O)N[C@@H](Cc2c[nH]c3ccccc23)C(=O)N[C@@H](C(C)C)C(=O)N[C@@H](Cc2ccc(-c3ccccc3)cc2)C(=O)N[C@@H]([C@@H](C)CC)C(=O)N[C@@H](CCCN)C(=O)N[C@H](CC(C)C)C(=O)N[C@@H](CCN)C(=O)N[C@@H](CC(C)C)C(=O)N[C@@H](C(C)C)C(=O)N[C@@H]([C@@H](C)O)C(=O)N1)C(=O)N[C@@H](CCCCN)C(=O)NCCCCCCCCCCC(=O)O [Compound 1202] ({CH2CO}-[4Pal]Y(Carboxymethyl)DWV[Bip]I[Orn][dL][Dab]LVTC[Orn][AEEA][Pra]K[Aun]-OH; thioether N-14) | 0.0167
C#CC[C@H](NC(=O)COCCOCCNC(=O)[C@H](CCCN)NC(=O)[C@@H]1CSCC(=O)N[C@@H](Cc2ccncc2)C(=O)N[C@@H](Cc2ccc(OCC(=O)O)cc2)C(=O)N[C@@H](CC(=O)O)C(=O)N[C@@H](Cc2c[nH]c3ccccc23)C(=O)N[C@@H](C(C)C)C(=O)N[C@@H](Cc2ccc(-c3ccccc3)cc2)C(=O)N[C@@H]([C@@H](C)CC)C(=O)N[C@@H](CCCN)C(=O)N[C@H](CC(C)C)C(=O)N[C@@H](CCN)C(=O)N[C@@H](CC(C)C)C(=O)N[C@@H](C(C)C)C(=O)N[C@@H]([C@@H](C)O)C(=O)N1)C(=O)N[C@@H](CCCNC(=N)N)C(=O)NCCCCCCCCCCC(=O)O [Compound 1203] ({CH2CO}-[4Pal]Y(Carboxymethyl)DWV[Bip]I[Orn][dL][Dab]LVTC[Orn][AEEA][Pra]R[Aun]-OH; thioether N-14) | 0.0374
C#CC[C@H](NC(=O)COCCOCCNC(=O)[C@H](CCCN)NC(=O)[C@@H]1CSCC(=O)N[C@@H](Cc2ccncc2)C(=O)N[C@@H](Cc2ccc(OCC(=O)O)cc2)C(=O)N[C@@H](CC(=O)O)C(=O)N[C@@H](Cc2c[nH]c3ccccc23)C(=O)N[C@@H](C(C)C)C(=O)N[C@@H](Cc2ccc(-c3ccccc3)cc2)C(=O)N[C@@H]([C@@H](C)CC)C(=O)N[C@@H](CCCN)C(=O)N[C@H](CC(C)C)C(=O)N[C@@H](CCN)C(=O)N[C@@H](CC(C)C)C(=O)N[C@@H](C(C)C)C(=O)N[C@@H]([C@@H](C)O)C(=O)N1)C(=O)N[C@@H](Cc1c[nH]cn1)C(=O)NCCCCCCCCCCC(=O)O [Compound 1204] ({CH2CO}-[4Pal]Y(Carboxymethyl)DWV[Bip]I[Orn][dL][Dab]LVTC[Orn][AEEA][Pra]H[Aun]-OH; thioether N-14) | 0.0092
C#CC[C@H](NC(=O)COCCOCCNC(=O)[C@H](CN)NC(=O)[C@@H]1CSCC(=O)N[C@@H](Cc2ccncc2)C(=O)N[C@@H](Cc2ccc(OCC(=O)O)cc2)C(=O)N[C@@H](CC(=O)O)C(=O)N[C@@H](Cc2c[nH]c3ccccc23)C(=O)N[C@@H](C(C)C)C(=O)N[C@@H](Cc2ccc(-c3ccccc3)cc2)C(=O)N[C@@H]([C@@H](C)CC)C(=O)N[C@@H](CCCN)C(=O)N[C@H](CC(C)C)C(=O)N[C@@H](CCN)C(=O)N[C@@H](CC(C)C)C(=O)N[C@@H](C(C)C)C(=O)N[C@@H]([C@@H](C)O)C(=O)N1)C(=O)NCCCCCCCCCCC(=O)O [Compound 1205] ({CH2CO}-[4Pal]Y(Carboxymethyl)DWV[Bip]I[Orn][dL][Dab]LVTC[Dap][AEEA][Pra][Aun]-OH; thioether N-14) | 0.02
